Reference: US10670605B2, “Cysteine reactive probes and uses thereof” (The Scripps Research Institute, priority 2015, dated 2020)

How the values were obtained:
Assay in all cases: Competitive isoTOP-ABPP in situ (fragment-treated cells)
Format in all cases: cell-based
[1] = biological target: T1, cysteines in MDA-MB-231 and Ramos cells (Homo sapiens, UniProt Q9UPQ0); details: 200 μM, insitu, 231
T1 sequence (Q9UPQ0 1-1083): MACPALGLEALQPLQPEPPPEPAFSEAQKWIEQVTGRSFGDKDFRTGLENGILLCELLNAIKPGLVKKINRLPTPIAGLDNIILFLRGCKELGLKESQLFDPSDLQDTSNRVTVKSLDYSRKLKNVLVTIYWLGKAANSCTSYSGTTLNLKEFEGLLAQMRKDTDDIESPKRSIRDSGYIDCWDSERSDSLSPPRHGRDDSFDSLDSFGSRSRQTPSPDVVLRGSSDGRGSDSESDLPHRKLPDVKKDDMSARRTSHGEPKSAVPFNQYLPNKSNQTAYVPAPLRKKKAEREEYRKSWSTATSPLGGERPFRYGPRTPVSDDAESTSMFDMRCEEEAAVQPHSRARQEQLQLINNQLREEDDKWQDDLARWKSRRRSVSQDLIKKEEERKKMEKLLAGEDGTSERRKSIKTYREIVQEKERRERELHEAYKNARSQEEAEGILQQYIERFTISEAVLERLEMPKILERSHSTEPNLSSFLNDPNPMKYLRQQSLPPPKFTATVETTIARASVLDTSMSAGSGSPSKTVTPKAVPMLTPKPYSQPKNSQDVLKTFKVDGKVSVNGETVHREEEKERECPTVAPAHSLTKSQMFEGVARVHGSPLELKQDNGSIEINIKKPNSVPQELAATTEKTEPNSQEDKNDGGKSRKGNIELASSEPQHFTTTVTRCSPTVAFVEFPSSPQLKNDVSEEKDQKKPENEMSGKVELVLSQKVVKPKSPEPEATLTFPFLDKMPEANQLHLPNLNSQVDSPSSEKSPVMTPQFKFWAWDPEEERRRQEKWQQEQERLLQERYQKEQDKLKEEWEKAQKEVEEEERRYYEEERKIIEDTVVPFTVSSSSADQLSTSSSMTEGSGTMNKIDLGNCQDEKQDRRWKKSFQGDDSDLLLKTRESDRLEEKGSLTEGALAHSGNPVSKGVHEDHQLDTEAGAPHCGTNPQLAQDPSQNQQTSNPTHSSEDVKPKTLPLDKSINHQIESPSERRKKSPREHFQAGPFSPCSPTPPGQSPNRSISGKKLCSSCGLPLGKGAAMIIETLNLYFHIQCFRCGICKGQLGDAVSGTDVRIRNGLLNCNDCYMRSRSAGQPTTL

[2] = biological target: cysteines in MDA-MB-231 and Ramos cells (Homo sapiens, UniProt O60825); details: 200 μM, insitu
Sequence of cysteines in MDA-MB-231 and Ramos cells (Homo sapiens, UniProt O60825) (O60825 whole entry): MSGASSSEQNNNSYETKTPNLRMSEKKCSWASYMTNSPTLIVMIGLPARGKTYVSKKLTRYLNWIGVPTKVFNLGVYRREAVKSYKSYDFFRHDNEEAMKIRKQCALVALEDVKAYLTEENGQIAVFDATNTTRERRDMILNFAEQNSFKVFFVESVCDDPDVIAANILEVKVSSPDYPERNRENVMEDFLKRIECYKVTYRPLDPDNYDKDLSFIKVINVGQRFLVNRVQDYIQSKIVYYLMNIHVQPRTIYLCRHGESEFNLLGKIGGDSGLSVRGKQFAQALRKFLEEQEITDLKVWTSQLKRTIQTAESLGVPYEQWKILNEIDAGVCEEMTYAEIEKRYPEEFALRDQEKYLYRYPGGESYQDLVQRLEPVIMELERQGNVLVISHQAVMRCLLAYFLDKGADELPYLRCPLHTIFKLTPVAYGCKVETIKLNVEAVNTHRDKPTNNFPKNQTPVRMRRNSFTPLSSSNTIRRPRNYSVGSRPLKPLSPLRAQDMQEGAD

[3] = biological target: cysteines in MDA-MB-231 and Ramos cells (Homo sapiens, UniProt P07858); details: 200 μM, insitu, 231
[4] = biological target: T2, cysteines in MDA-MB-231 and Ramos cells (Homo sapiens, UniProt Q9NXV6); details: 200 μM, insitu
T2 sequence (Q9NXV6 1-580): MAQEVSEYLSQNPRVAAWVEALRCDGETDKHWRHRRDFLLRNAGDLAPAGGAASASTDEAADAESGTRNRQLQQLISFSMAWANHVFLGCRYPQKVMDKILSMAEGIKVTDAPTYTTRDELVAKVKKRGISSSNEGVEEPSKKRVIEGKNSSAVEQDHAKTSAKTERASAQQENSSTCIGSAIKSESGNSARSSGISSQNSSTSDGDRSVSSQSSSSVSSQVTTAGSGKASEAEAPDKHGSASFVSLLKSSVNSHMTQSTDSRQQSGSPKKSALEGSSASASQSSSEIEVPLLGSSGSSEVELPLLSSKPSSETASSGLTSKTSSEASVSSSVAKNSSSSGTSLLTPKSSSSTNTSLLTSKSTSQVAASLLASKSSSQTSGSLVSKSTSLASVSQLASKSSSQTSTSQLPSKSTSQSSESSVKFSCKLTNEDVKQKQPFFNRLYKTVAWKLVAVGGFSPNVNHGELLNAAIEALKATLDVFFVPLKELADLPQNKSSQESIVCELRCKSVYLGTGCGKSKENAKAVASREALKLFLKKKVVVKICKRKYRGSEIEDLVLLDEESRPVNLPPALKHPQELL

[5] = biological target: cysteines in MDA-MB-231 and Ramos cells (Homo sapiens, UniProt Q96RP9); details: 200 μM, insitu
Sequence of cysteines in MDA-MB-231 and Ramos cells (Homo sapiens, UniProt Q96RP9) (Q96RP9 37-751): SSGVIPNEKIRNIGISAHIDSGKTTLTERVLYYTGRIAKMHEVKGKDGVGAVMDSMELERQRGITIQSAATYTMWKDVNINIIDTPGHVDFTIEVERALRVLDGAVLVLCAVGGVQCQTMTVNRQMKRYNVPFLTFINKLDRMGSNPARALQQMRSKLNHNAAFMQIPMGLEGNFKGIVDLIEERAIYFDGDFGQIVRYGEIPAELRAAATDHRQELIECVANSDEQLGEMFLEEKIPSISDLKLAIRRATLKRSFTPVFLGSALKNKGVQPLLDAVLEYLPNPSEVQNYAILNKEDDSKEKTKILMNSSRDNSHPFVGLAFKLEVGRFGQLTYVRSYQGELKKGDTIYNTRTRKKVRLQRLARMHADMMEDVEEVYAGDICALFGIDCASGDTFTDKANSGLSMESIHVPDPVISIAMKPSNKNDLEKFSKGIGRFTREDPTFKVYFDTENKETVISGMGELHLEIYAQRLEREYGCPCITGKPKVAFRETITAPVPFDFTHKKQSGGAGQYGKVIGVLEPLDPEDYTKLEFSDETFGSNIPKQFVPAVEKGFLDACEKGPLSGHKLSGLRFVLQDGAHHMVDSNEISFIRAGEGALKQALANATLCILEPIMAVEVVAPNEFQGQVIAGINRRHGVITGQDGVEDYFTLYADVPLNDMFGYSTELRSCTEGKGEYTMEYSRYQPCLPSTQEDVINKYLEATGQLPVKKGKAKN

[6] = biological target: T3, cysteines in MDA-MB-231 and Ramos cells (Homo sapiens, UniProt Q13158); details: 200 μM, insitu
T3 sequence (Q13158 1-208): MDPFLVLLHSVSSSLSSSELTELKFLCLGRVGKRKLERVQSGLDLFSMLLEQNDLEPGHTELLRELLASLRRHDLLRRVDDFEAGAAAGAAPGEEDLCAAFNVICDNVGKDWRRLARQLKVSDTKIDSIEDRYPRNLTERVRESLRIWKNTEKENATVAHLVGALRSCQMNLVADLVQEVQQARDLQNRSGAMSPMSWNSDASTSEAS

[7] = biological target: cysteines in MDA-MB-231 and Ramos cells (Homo sapiens, UniProt Q9UNI6); details: 200 μM, insitu, 231
Sequence of cysteines in MDA-MB-231 and Ramos cells (Homo sapiens, UniProt Q9UNI6) (Q9UNI6 whole entry): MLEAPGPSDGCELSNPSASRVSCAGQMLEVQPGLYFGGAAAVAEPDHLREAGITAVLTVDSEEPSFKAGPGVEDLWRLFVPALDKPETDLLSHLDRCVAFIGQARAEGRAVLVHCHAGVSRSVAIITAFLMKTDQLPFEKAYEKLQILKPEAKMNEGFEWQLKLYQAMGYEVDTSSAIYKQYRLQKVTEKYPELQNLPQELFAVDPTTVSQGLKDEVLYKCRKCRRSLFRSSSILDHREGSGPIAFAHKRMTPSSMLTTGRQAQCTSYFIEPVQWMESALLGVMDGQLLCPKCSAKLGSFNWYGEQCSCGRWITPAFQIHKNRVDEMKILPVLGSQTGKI

[8] = biological target: T4, cysteines in MDA-MB-231 and Ramos cells (Homo sapiens, UniProt P09110); details: 200 μM, insitu, 231
T4 sequence (P09110 27-424): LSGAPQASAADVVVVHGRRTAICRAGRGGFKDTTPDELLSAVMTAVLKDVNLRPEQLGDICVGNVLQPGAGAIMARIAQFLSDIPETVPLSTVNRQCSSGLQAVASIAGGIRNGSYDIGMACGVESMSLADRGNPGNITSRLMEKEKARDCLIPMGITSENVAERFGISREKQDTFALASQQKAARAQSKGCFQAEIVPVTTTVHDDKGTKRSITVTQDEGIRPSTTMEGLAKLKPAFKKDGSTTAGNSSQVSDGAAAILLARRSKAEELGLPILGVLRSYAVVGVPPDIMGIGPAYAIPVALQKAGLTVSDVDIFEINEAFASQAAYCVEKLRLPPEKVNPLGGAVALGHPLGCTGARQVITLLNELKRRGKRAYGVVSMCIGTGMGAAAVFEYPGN

[9] = biological target: T5, cysteines in MDA-MB-231 and Ramos cells (Homo sapiens, UniProt Q96C19); details: 200 μM, insitu
T5 sequence (Q96C19 1-240): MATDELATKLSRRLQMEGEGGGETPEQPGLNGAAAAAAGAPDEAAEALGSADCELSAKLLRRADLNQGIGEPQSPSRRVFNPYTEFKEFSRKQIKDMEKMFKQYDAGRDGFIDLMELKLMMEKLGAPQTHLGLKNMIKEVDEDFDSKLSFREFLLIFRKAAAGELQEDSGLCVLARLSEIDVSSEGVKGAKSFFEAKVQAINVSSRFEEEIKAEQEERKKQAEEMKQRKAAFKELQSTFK

| Compound | isoTOP-ABPP ratio Q9UPQ0_C140 [1] | isoTOP-ABPP ratio O60825_C158 [2]; 231 | isoTOP-ABPP ratio P07858_C211 [3] | isoTOP-ABPP ratio Q9NXV6_C516 [4]; 231 | isoTOP-ABPP ratio Q13158_C98 [6]; 231 | isoTOP-ABPP ratio Q9UNI6_C265 [7] | isoTOP-ABPP ratio P09110_C381 [8] | isoTOP-ABPP ratio Q96C19_C172 [9]; 231 | other results |
| --- | --- | --- | --- | --- | --- | --- | --- | --- | --- |
| COc1ccccc1OCCNC(=O)CCl [compound 28] |  |  |  |  |  | 0.8 | 0.8 |  |  |
| O=C(CCl)N1CCN(CC(=O)N2CCOCC2)CC1 [compound 29] |  |  |  |  |  |  |  |  | isoTOP-ABPP ratio Q13158_C98 ([6]; ramos): 1.3; isoTOP-ABPP ratio O60825_C158 ([2]; ramos): 0.9; isoTOP-ABPP ratio Q9NXV6_C516 ([4]; ramos): 1.1; isoTOP-ABPP ratio Q96C19_C172 ([9]; ramos): 1.2; isoTOP-ABPP ratio Q96RP9_C153 ([5]; ramos): 1.2 |
| C=CC(=O)N(Cc1cccnc1)c1cc(C(F)(F)F)cc(C(F)(F)F)c1 [compound 31] |  |  |  |  | 0.9 |  | 0.7 | 1.6 | isoTOP-ABPP ratio O60825_C158 ([2]; ramos): 1,3 |
| C=CC(=O)Nc1cc(F)c(N2CCN(C(=O)OC(C)(C)C)CC2)c(F)c1 [compound 38] | 2.5 |  | 1.8 | 1.8 | 1.5 | 1.0 | 0.8 | 0.7 |  |
| Cc1ccc(C=C(C#N)C(=O)NCCN2CCOCC2)cc1 [compound 41] | 0.5 | 0.7 | 0.4 | 0.9 |  | 1.0 | 0.9 | 0.5 | isoTOP-ABPP ratio Q96RP9_C153 [5]; 231: 1.1 |
| CC1CCc2ccccc2N1C(=O)CCl (centres unmarked) [compound 45] | 20.0 | 1.3 | 2.4 |  |  | 7.5 | 1.2 |  |  |
| O=C(CCl)Nc1cccc2ncccc12 [compound 51] |  | 0.9 |  |  |  |  |  | 1.2 |  |

Continued, in another order:

| isoTOP-ABPP ratio Q9UPQ0_C140 [1] | isoTOP-ABPP ratio O60825_C158 [2]; 231 | isoTOP-ABPP ratio P07858_C211 [3] | isoTOP-ABPP ratio Q9NXV6_C516 [4]; 231 | isoTOP-ABPP ratio Q13158_C98 [6]; 231 | isoTOP-ABPP ratio Q9UNI6_C265 [7] | isoTOP-ABPP ratio P09110_C381 [8] | isoTOP-ABPP ratio Q96C19_C172 [9]; 231 | Compound | other results |
| --- | --- | --- | --- | --- | --- | --- | --- | --- | --- |
| 0.8 | 1.4 | 2.6 | 0.8 |  |  |  |  | O=C(CCl)NC12CC3CC(CC(C3)C1)C2 [compound 21] | isoTOP-ABPP ratio, cysteine Q96RP9_C153 [5]; 231: 1.4 |
| 0.7 |  | 0.8 | 1.4 | 0.6 | 0.6 |  |  | CC(C)CCOCCNC(=O)CCl [compound 27] | isoTOP-ABPP ratio Q96RP9_C153 [5]; 231: 1.6 |
